Results from the supplement of paper PMC10307832.

Columns and labels:
Assay in all cases: relative viability (nuclei count vs DMSO), 5 days (fraction); higher = more cells survive
[1] = compound: CC1=CN2C(=O)C=C(N=C2C(=C1)C(C)NC3=CC=CC=C3)N4CCOCC4 [TGX 221] + Cc1nc(Nc2ncc(C(=O)Nc3c(C)cccc3Cl)s2)cc(N2CCN(CCO)CC2)n1 [Dasatinib] (partner 0.075 µM)
Outline: (§1)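 Five library-drug doses in √10 steps were combined with a fixed anchor-drug dose, or a single drug was given alone, by pin tool to lung cancer cell lines in 1536-well plates the day after seeding. Nuclei were stained and counted after 5 days. Relative viability is the nuclei count in treated wells over that in vehicle wells, taken as the median of duplicate plates.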

[2] = compound: O=C(CCCCCCNC(=O)c1cnc(N(c2ccccc2)c2ccccc2)nc1)NO [Ricolinostat] + N=C(N)NC(=N)NCCc1ccccc1 [Phenformin] (partner 250 µM)
Outline: as §1

[3] = compound: O=C(CCCCCCNC(=O)c1cnc(N(c2ccccc2)c2ccccc2)nc1)NO [Ricolinostat] + CS(=O)(=O)CCNCc1ccc(-c2ccc3ncnc(Nc4ccc(OCc5cccc(F)c5)c(Cl)c4)c3c2)o1 [Lapatinib] (partner 2 µM)
Outline: as §1

[4] = compound: C1=CC=C(C(=C1)C2=CC=C(C=C2)C3=CSC4=C3C(=C(C(=O)N4)C#N)O)O + Cc1nc(Nc2ncc(C(=O)Nc3c(C)cccc3Cl)s2)cc(N2CCN(CCO)CC2)n1 [Dasatinib] (partner 0.075 µM)
Outline: as §1

Cell Line	relative viability ([1]; first compound 0.08 µM)	relative viability ([1]; first compound 0.253 µM)	relative viability ([1]; first compound 0.8 µM)	relative viability ([1]; first compound 2.53 µM)	relative viability ([1]; first compound 8 µM)	relative viability ([2]; first compound 0.08 µM)	relative viability ([2]; first compound 0.253 µM)	relative viability ([2]; first compound 0.8 µM)	relative viability ([2]; first compound 2.53 µM)	relative viability ([3]; first compound 0.08 µM)	relative viability ([3]; first compound 0.253 µM)	relative viability ([3]; first compound 0.8 µM)	relative viability ([3]; first compound 2.53 µM)	relative viability ([4]; first compound 0.08 µM)	relative viability ([4]; first compound 0.253 µM)	relative viability ([4]; first compound 0.8 µM)	relative viability ([4]; first compound 2.53 µM)	relative viability ([4]; first compound 8 µM)
NCI-H358	0.158	0.169	0.146	0.165	0.158	0.265	0.362	0.424	0.432	0.311	0.505	0.501	0.519	0.211	0.2	0.174	0.139	0.196
SW 1573	0.402	0.501	0.403	0.406	0.574	0.316	0.393	0.474	0.551	0.941	1.23	1.12	1	0.498	0.618	0.662	0.666	0.369
LK-2	0.242	0.293	0.312	0.298	0.265	0.415	0.547	0.499	0.449	0.908	1.2	0.941	0.913	–	0.269	0.276	0.28	0.253
NCI-H596	0.593	0.531	0.585	0.522	0.563	0.836	0.749	0.7	0.694	0.985	1.08	1	0.743	0.568	0.678	0.713	0.557	0.476
NCI-H1650	0.236	0.29	0.28	0.323	0.242	0.338	0.408	0.445	0.218	0.577	0.72	0.6	0.752	0.253	0.393	0.349	0.322	0.318
NCI-H1437	0.408	0.427	0.517	0.323	0.356	0.23	0.561	0.292	0.23	0.705	0.767	0.714	0.642	0.32	0.363	0.344	0.456	0.371
PC-3 [JPC-3]	0.893	0.934	1.02	0.93	0.925	–	0.472	0.488	0.475	0.351	0.466	0.414	0.475	0.818	0.731	0.913	1.11	0.953
NCI-H1395	0.399	0.383	0.406	0.348	0.362	–	0.48	0.425	0.463	–	1.11	0.881	0.833	0.382	0.368	0.45	0.381	0.421
NCI-H1651	0.505	0.371	0.464	0.345	0.362	0.318	0.352	0.311	0.365	0.6	0.702	0.731	0.636	0.386	0.371	0.436	0.378	0.26
CAL-12T	0.365	0.34	0.383	0.31	0.373	0.489	0.548	0.559	0.517	0.326	0.751	0.628	0.668	0.389	0.353	0.435	0.36	0.362
NCI-H23	0.784	0.745	0.823	0.742	0.586	0.72	0.749	0.8	0.706	1.16	1.25	0.998	0.773	0.654	0.677	0.755	1.01	0.604
NCI-H2228	0.508	0.471	0.517	0.474	0.398	0.255	0.341	0.355	0.342	0.876	0.88	1.11	0.574	0.511	0.476	0.567	0.606	0.475
NCI-H661	0.945	0.831	0.803	0.876	0.828	0.27	0.285	0.262	0.302	–	0.544	0.542	0.72	0.771	0.916	1.07	0.834	0.801
